Laboratory results as given in PubChem BioAssay (NCI).
Several values for one entry are separate records, joined by “and”; a condition that tells them apart may be missing. Identical values can stand only once.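 Five concentrations, 48 hours, 96-well plates. At the GI50, growth is halved. TGI denotes the concentration required for complete inhibition of growth.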

Assays:
Assay in all cases: NCI tumour cell line growth inhibition, 48 h
HCC-2998 colon = test system: HCC-2998 colon
SF-295 CNS = test system: SF-295 CNS
NCI/ADR-RES ovarian = test system: NCI/ADR-RES ovarian
UO-31 renal = test system: UO-31 renal
SK-MEL-28 melanoma = test system: SK-MEL-28 melanoma
IGROV1 ovarian = test system: IGROV1 ovarian
NCI-H460 lung = test system: NCI-H460 lung
SK-OV-3 ovarian = test system: SK-OV-3 ovarian
SF-539 CNS = test system: SF-539 CNS
MDA-MB-231 breast = test system: MDA-MB-231 breast

Compound	TGI (HCC-2998 colon)	GI50 (SF-295 CNS)	TGI (SF-295 CNS)	TGI (NCI/ADR-RES ovarian)	GI50 (UO-31 renal)	TGI (UO-31 renal)	GI50 (SK-MEL-28 melanoma)	TGI (SK-MEL-28 melanoma)	GI50 (IGROV1 ovarian)	TGI (IGROV1 ovarian)	GI50 (NCI-H460 lung)	TGI (NCI-H460 lung)	TGI (SK-OV-3 ovarian)	TGI (SF-539 CNS)	GI50 (MDA-MB-231 breast)	TGI (MDA-MB-231 breast)	GI50 (HCC-2998 colon)	GI50 (NCI/ADR-RES ovarian)	GI50 (SK-OV-3 ovarian)	GI50 (SF-539 CNS)
CCCCCCCCCC[C@@H](O)[C@@H]1CC[C@@H]([C@@H]2CC[C@@H]([C@@H](O)CCCCCCCCCC[C@H](O)CC3=CC(C)OC3=O)O2)O1 (stereo partly drawn)	9.13 µM	0.686 µM	> 100 µM	5.34 µM and 35.8 µM	2.42 µM	5.24 µM and > 20 µM	5.25 µM	> 28.8 µM	4.4 µM	7.47 µM and 36.8 µM	3.4 µM	> 100 µM	21.9 µM	9.39 µM and 13.3 µM	8.01 µM	24.6 µM	–	–	–	–
Cc1c(Cl)c(=O)oc2cc(OC/C=C3\CCC(=O)O3)ccc12	41.2 µM	62.9 µM	> 100 µM	59.4 µM	12.1 µM	25 µM	19.7 µM	50 µM	12.9 µM	27.5 µM	26.9 µM	> 100 µM	> 100 µM	56.5 µM	16.8 µM	33.2 µM	18 µM	24.1 µM	58 µM	17.4 µM
Cc1ccc(C(=O)c2sc3nc4c(cc3c2N)CCCC4)c(C)c1	> 100 µM	0.291 µM	98.9 µM	> 100 µM	0.766 µM	> 100 µM	2.15 µM	> 100 µM	1.23 µM	> 100 µM	0.348 µM	> 100 µM	> 100 µM	0.956 µM	1.08 µM	> 100 µM	4.72 µM	0.239 µM	0.515 µM	0.25 µM
CNCC/C=C1\c2cc3c(cc2-c2c1c1cc(OC)c(OC)cc1c(=O)n2C)OCO3	33.6 µM	0.0811 µM	15.6 µM	> 45.2 µM	0.548 µM	> 100 µM	11.8 µM	> 69.4 µM	< 0.0505 µM	–	0.196 µM	5.97 µM	23.6 µM	5.85 µM	1.78 µM	13.6 µM	3.41 µM	3.74 µM	3.28 µM	0.4 µM
O=C(O)c1cc2ccccc2c2c3c(ccc12)OCO3	763 µM	157 µM	618 µM	754 µM	116 µM	484 µM	167 µM	491 µM	201 µM	738 µM	265 µM	> 1000 µM	739 µM	337 µM	165 µM	> 1000 µM	225 µM	210 µM	236 µM	132 µM
C=C1C(=O)OC2C1C(OC(=O)/C(C)=C/C)CC(O)(CCl)C1C(O)C=C(C)C21O (stereo not drawn)	25.6 µM	–	> 100 µM	55.6 µM	–	33.9 µM	–	35 µM	–	31.6 µM	–	36.2 µM	> 100 µM	65.5 µM	–	30.9 µM	–	–	–	–
O=C(NCCc1ccccc1)Nc1ccc2cc3ccc(NC(=O)NCCc4ccccc4)cc3nc2c1	1.68 µM	1.94 µM	4.79 µM	> 100 µM	> 100 µM	> 100 µM	1.43 µM	2.8 µM	1.44 µM	3.97 µM	1.27 µM	3.57 µM	3 µM	2.7 µM	1.35 µM	2.75 µM	0.447 µM	> 100 µM	1.51 µM	1.33 µM
COc1cc(-n2cc(-c3ccccc3)[nH]c2=O)cc(OC)c1OC	> 100 µM	37.8 µM	> 100 µM	> 100 µM	37.9 µM	> 100 µM	31.4 µM	> 100 µM	> 100 µM	> 100 µM	52.2 µM	> 100 µM	> 100 µM	63.8 µM	37.2 µM	> 100 µM	> 100 µM	33 µM	34.3 µM	21.5 µM
N#Cc1cnc2cc(OC[C@@H](O)CO)c(NC(=O)C3CCCC3)cc2c1Nc1ccc(OCc2cccc(F)c2)c(Cl)c1	3.38 µM	3.78 µM	12.2 µM	> 50 µM	2.21 µM	> 50 µM	0.669 µM	1.42 µM	–	–	1.05 µM	4.73 µM	11.5 µM	2.93 µM	0.74 µM	1.82 µM	1.1 µM	21.7 µM	3.23 µM	1.15 µM
OB(O)c1ccccc1C#Cc1ccccc1B(O)O	40.9 µM	–	75.9 µM	> 100 µM	–	60.5 µM	–	99.3 µM	–	13.9 µM	–	48.2 µM	> 100 µM	44.9 µM	–	66.3 µM	–	–	–	–
C/C=C/C/C=C/[C@H](C)C[C@H](O)[C@@H]1C[C@@H]2O[C@H]2/C=C/[C@@H]2OC(C)(C)O[C@H]2/C=C/C[C@H](C)CC(=O)O1	> 100 µM	6.06 µM	60.8 µM	> 100 µM	3.01 µM	18.7 µM	47.8 µM	> 100 µM	10.5 µM	> 100 µM	5.65 µM	> 100 µM	> 100 µM	> 100 µM	36.1 µM	> 100 µM	> 100 µM	3.28 µM	24.5 µM	26.3 µM
COc1cccc(-c2nn(-c3ccccc3)cc2-c2ccnc(NCCCNC(=O)c3cccc(C(F)(F)F)c3)c2)c1	18.2 µM	3.32 µM	13.9 µM	16.8 µM	2.69 µM	16.6 µM	5.45 µM	25.3 µM	7.59 µM	32 µM	4.03 µM	18.2 µM	29.2 µM	8.29 µM	3.86 µM	25.7 µM	3.96 µM	3.54 µM	7.04 µM	2.92 µM
Cc1ccc(Nc2cc(Cl)c([N+](=O)[O-])cc2[N+](=O)[O-])cc1	4.81 µM	14.4 µM	34 µM	24 µM	4.71 µM	17.5 µM	2.77 µM	7.27 µM	3.89 µM	10.4 µM	2.35 µM	5.45 µM	13.1 µM	15.3 µM	4.42 µM	15.8 µM	2.26 µM	3.83 µM	4.55 µM	4 µM
